For test [1], the system named is lung fibrosis mouse models. Also on record: method as in earlier work. As to conditions: two mouse models, therapeutic setting; cited from earlier work.
A further test deals with patients with NASH. Set-up: method as in PMID 28833331, PMID 31943293. The following applies: early data from a clinical trial in patients with NASH; cited from earlier work.
A further test has as its target T1, mGPR84 (Mus musculus, UniProt Q8CIM5).
T1 construct: expressed in transfected cells; host or cells: CHO-K1
The test can be described thus: cAMP HTRF assay, CHO-K1-mGPR84 cell membrane. Type of test: biochemical. (Time-resolved FRET reads energy transfer from a long-lived donor to a nearby acceptor.)

For test [2], the system named is C57BL6/J wildtype mice, acute CCl4 liver injury. The test can be described thus: CCl4-induced acute liver injury in mice. It is filed as in vivo, mouse. As to conditions: 36 h after single IP CCl4.
For test [3], the system named is C57BL6/J wildtype mice, MCD diet. Put plainly: MCD diet-induced steatohepatitis and fibrosis in mice. The following applies: MCD diet 8 weeks, treatment last 4 weeks; GPR84 antagonists 30 mg/kg PO q.d., selonsertib 15 mg/kg PO b.i.d. It is filed as in vivo, mouse.
Test [4] concerns C57BL6/J wildtype mice, chronic CCl4. Put plainly: CCl4-induced chronic liver injury / fibrosis in mice. Type of test: in vivo, mouse. As to conditions: CCl4 IP twice per week 8 weeks, treatment last 4 weeks; CpdA 30 mg/kg q.d., selonsertib 15 mg/kg b.i.d.
Another test concerns human neutrophils. The test can be described thus: Human neutrophil chemotaxis towards GPR84 agonists. Type of test: cell-based. The following applies: embelin 5 µM.
Test [5] has as its system CD115+ monocytes from mouse bone marrow. The test can be described thus: Transwell chemotaxis of murine bone-marrow monocytes. It is filed as cell-based. The following applies: 3-µM embelin, 2 h. As to the method:
(§1) Bone marrow of the untreated WT mice at 8 weeks of age was used to isolate the immune cells for transwell migration assays. A single cell suspension was achieved by flushing cold RPMI-1640 through the bones, and grinding the received bone marrow through a 70-µm cell strainer. After lysis of red blood cells by Pharmlyse (BD Biosciences, San Jose, CA, USA), 1 × 10^6 cells in RPMI-1640 were placed in the upper compartment of the 5-µm transwell migration chamber. Migration was analyzed towards stimulation with a 3-µM embelin, a surrogate GPR84 agonist, or a 100-µM myristic acid (an MCFA) dissolved in combination with bovine serum albumin (BSA) in the lower compartment. The chemotactic cytokines, 5 nM CCL2 or 1 nM CXCL1, were used as positive controls for monocyte or neutrophil migration, respectively. After 2 h of incubation at 37 °C, the cells in the lower compartment were analyzed by flow cytometry.

The test system of test [6] is neutrophils from mouse bone marrow. The test can be described thus: Transwell chemotaxis of murine bone-marrow neutrophils. The following applies: 3-µM embelin, 2 h. It is filed as cell-based. On the procedure: as §1
Test [7] relates to experimental kidney as well as liver fibrosis. Set-up: method as in PMID 29454750, PMID 30093459. As to conditions: cited from earlier work.
[8] abbreviates: GPR84 antagonists 30 mg/kg PO, selonsertib 15 mg/kg PO.

Consider six compounds from paper PMC7231190, “The Medium-Chain Fatty Acid Receptor GPR84 Mediates Myeloid Cell Infiltration Promoting Steatohepatitis and Fibrosis” (Journal of Clinical Medicine, 2020).

Structures can show the parent of a compound that is named as a salt.

T1 sequence (Q8CIM5 whole entry): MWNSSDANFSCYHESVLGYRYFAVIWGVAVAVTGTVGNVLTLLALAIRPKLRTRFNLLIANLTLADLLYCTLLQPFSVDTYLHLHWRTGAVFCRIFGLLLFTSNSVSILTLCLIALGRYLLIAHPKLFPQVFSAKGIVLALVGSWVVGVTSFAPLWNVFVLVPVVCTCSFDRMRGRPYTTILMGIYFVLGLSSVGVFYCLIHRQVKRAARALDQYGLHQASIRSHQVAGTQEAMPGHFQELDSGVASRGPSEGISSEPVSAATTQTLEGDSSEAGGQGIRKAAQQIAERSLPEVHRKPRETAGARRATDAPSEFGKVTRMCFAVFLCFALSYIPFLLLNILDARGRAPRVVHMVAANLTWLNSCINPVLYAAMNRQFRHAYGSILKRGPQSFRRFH

Consider `O=c1nc(OC[C@@H]2COCCO2)cc2n1CCc1cc(C#CC3CC3)ccc1-2` [GLPG1205], for which the lung fibrosis entry in [1] is given as “reduced lung fibrosis”.
As to `CCCCOCCOc1ccc(-c2ccc3c(c2)/C=C(/C(=O)Nc2ccc([S@@+]([O-])Cc4cncn4CCC)cc2)CCCN3CC(C)C)cc1` [cenicriviroc], the antifibrotic activity result in the test with patients with NASH was “effective antifibrotic activity”.
As for `CCCCCCCCCC(=O)O` [Capric acid], the “EC80 of agonist in cAMP HTRF assay” value at mGPR84 was “cAMP HTRF assay (IC50 nM) CHO-K1-mGPR84 cell membrane, Capric acid (EC80 = 61.7 µM)”.
For the compound `Cc1cc(F)c(C(=O)Nc2cccc(-c3nncn3C(C)C)n2)cc1-n1cnc(C2CC2)c1` [selonsertib], the “extent of acute liver injury (necrotic areas on histology, serum ALT)” value in test [2] (GPR84 antagonists 30 mg/kg PO at 0 h, 24 h, selonsertib 15 mg/kg PO at 0, 12, 24 h) was “neither significantly modified”. Further, in [2] (setting [8]), the “MoMF infiltration (flow cytometry)” value was “but not selonsertib, significantly reduced”; the “hepatic macrophage accumulation (F4/80 immunohistochemistry)” value is “neither significantly modified”; the “hepatic neutrophil infiltration (flow cytometry)” value is listed as “but not selonsertib, significantly reduced”. In addition, the “liver fibrosis (Sirius-Red-stained liver sections and hepatic hydroxyproline content)” value in [3] is reported as “reduced”. In test [4], the “liver fibrosis (Sirius-Red-staining and hepatic hydroxyproline content)” value is recorded as “markedly reduced”; the “neutrophils and liver lymphocytes” value is reported as “largely unaltered”; the “numbers of hepatic macrophages, particularly MoMF” value was “lower numbers”; the “toxic injury according to histology or ALT levels” value was “unaffected”.
Consider `CCCCCCCCCCCC1=C(O)C(=O)C=C(O)C1=O` [embelin], for which the “induction of human neutrophil migration by agonist” value in the test on human neutrophils is “strongly induced”. Besides, in test [5], the “stimulation of mouse monocyte migration by agonist” value is on record as “stimulated”. The “attraction of mouse neutrophils by agonist” value in test [6] is given as “attracted”.
With `CCCCCc1cccc(CC(=O)O)c1` [PBI-4050, 3-pentylbenzeneacetic acid sodium salt], the “experimental kidney and liver fibrosis” value in test [7] is “reduced experimental kidney as well as liver fibrosis”.
